Several values for one entry are separate records, joined by “and”; a condition that tells them apart may be missing. Equal entries are not always repeated. Inconclusive results and toxic doses are left out.

For this assay, the system named is P388 leukemia ip, CD2F1 mice, survival T/C. The assay can be described thus: NCI In Vivo Anticancer Drug Screen. Data for tumor model P388 Leukemia (intraperitoneal) in CD2F1 (CDF1) mice. Conditions: endpoint: median survival time, higher = longer survival. The method in brief:
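Mice carrying the transplanted tumor received test compound or vehicle. Survival was recorded in each group, and the value is the treated-group measurement divided by that of the vehicle-treated control group.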

The mark [1] stands for this setting: dose: 25.0 mg/kg/injection, schedule: Q01DX005 (ip), vehicle: Klucel (hydroxypropylcellulose) (HPC).
Where [2] appears, read: dose: 50.0 mg/kg/injection, schedule: Q01DX005 (ip), vehicle: Klucel (hydroxypropylcellulose) (HPC).
Where [3] appears, read: dose: 100.0 mg/kg/injection, schedule: Q01DX005 (ip), vehicle: Klucel (hydroxypropylcellulose) (HPC).
Where [4] appears, read: dose: 50.0 mg/kg/injection, schedule: Q01DX005 (ip), vehicle: saline.
The mark [5] stands for this setting: dose: 100.0 mg/kg/injection, schedule: Q01DX005 (ip), vehicle: saline.
Where [6] appears, read: dose: 60.0 mg/kg/injection, schedule: Q01DX005 (ip), vehicle: saline with Tween-80.
Setting [7] is: dose: 120.0 mg/kg/injection, schedule: Q01DX005 (ip), vehicle: saline with Tween-80.
[8] abbreviates: dose: 240.0 mg/kg/injection, schedule: Q01DX005 (ip), vehicle: saline with Tween-80.
Setting [9] is: dose: 50.0 mg/kg/injection, schedule: Q01DX009 (ip), vehicle: saline.
Setting [10] is: dose: 60.0 mg/kg/injection, schedule: Q01DX005 (ip), vehicle: Klucel (hydroxypropylcellulose) (HPC).
The mark [11] stands for this setting: dose: 50.0 mg/kg/injection, schedule: Q01DX009 (ip), vehicle: saline with Tween-80.
Setting [12] is: dose: 100.0 mg/kg/injection, schedule: Q01DX009 (ip), vehicle: saline with Tween-80.
The mark [13] stands for this setting: dose: 50.0 mg/kg/injection, schedule: Q01DX005 (ip), vehicle: saline with Tween-80.
Setting [14] is: dose: 100.0 mg/kg/injection, schedule: Q01DX005 (ip), vehicle: saline with Tween-80.
Setting [15] is: dose: 200.0 mg/kg/injection, schedule: Q01DX005 (ip), vehicle: saline with Tween-80.

In the case of `C/C=C(\C)C(=O)N/N=C\C=C\c1ccccc1`, the T/C is, setting by setting: under setting [1], 89 % of control; under setting [2], 92 % of control; under setting [3], 89 % of control.
Regarding `O=[N+]([O-])c1ccc(CS(=O)(=O)c2ccccc2)o1`, the T/C is 103 % of control (dose: 50.0 mg/kg/injection, schedule: Q01DX009 (ip), vehicle: suspension in saline); 100 % of control (dose: 100.0 mg/kg/injection, schedule: Q01DX009 (ip), vehicle: suspension in saline); 105 % of control (dose: 200.0 mg/kg/injection, schedule: Q01DX009 (ip), vehicle: suspension in saline).
Regarding `COc1ccc(C=C(C(=O)CCN(C)C)C(=O)CCN(C)C)cc1`, the T/C was 105 % of control under setting [4] and 100 % of control under setting [5].
As to `COC1(C)CC(c2ccccc2)=NO1` (centres undefined), the T/C reads like this: under setting [6], 96 % of control; under setting [7], 103 % of control; under setting [8], 96 % of control.
Consider `CCN(CC)P(=S)(c1ccccc1CCP(=S)(c1ccccc1)c1ccccc1)N(CC)CC`, for which the T/C is, setting by setting: under setting [6], 92 % of control; under setting [7], 93 % of control; under setting [8], 91 % of control.
Turning to `[C-]#[N+]C1CC2CCC1C2.[C-]#[N+]C1CC2CCC1C2.[C-]#[N+]C1CC2CCC1C2.[C-]#[N+]C1CC2CCC1C2.[C-]#[N+]C1CC2CCC1C2.[C-]#[N+]C1CC2CCC1C2.[Mn]` (centres undefined), the T/C was 115 % of control (dose: 0.19 mg/kg/injection, schedule: Q01DX009 (ip), vehicle: saline with Tween-80) and 156 % of control (dose: 0.38 mg/kg/injection, schedule: Q01DX009 (ip), vehicle: saline with Tween-80).
Turning to `Nc1ccccc1-c1ccccc1[N+](=O)[O-]`, the T/C by setting is: under setting [9], 95 % of control; (dose: 100.0 mg/kg/injection, schedule: Q01DX009 (ip), vehicle: saline) 96 % of control; (dose: 200.0 mg/kg/injection, schedule: Q01DX009 (ip), vehicle: saline) 95 % of control.
For the compound `CCCCC1/C(=C/C(=O)c2ccccc2)Nc2ccccc2N1C(=O)c1ccccc1` (centres undefined), the T/C reads like this: under setting [10], 97 % of control; (dose: 120.0 mg/kg/injection, schedule: Q01DX005 (ip), vehicle: Klucel (hydroxypropylcellulose) (HPC)) 89 % of control; (dose: 240.0 mg/kg/injection, schedule: Q01DX005 (ip), vehicle: Klucel (hydroxypropylcellulose) (HPC)) 90 % of control.
Take `CN(C)CCCC#N`: the T/C is 100 % of control (dose: 25.0 mg/kg/injection, schedule: Q04DX003 (ip), vehicle: saline); 100 % of control (dose: 50.0 mg/kg/injection, schedule: Q04DX003 (ip), vehicle: saline); 100 % of control (dose: 100.0 mg/kg/injection, schedule: Q04DX003 (ip), vehicle: saline).
Consider `CCOC(=O)c1ccc2c(c1)C(C)(SC)C(=O)N2` (centres undefined), for which the T/C is 96 % of control (dose: 25.0 mg/kg/injection, schedule: Q01DX009 (ip), vehicle: saline with Tween-80); 100 % of control under setting [11]; 93 % of control under setting [12].
On to `C[CH2][Sn]([CH2]C)([S]c1nc(O)cc(=O)[nH]1)[S]c1nc(O)cc(=O)[nH]1`, for which the T/C runs as follows: (dose: 1.56 mg/kg/injection, schedule: Q01DX005 (ip), vehicle: Klucel (hydroxypropylcellulose) (HPC)) 107 % of control; (dose: 3.12 mg/kg/injection, schedule: Q01DX005 (ip), vehicle: Klucel (hydroxypropylcellulose) (HPC)) 113 % of control and 119 % of control; (dose: 6.25 mg/kg/injection, schedule: Q01DX005 (ip), vehicle: Klucel (hydroxypropylcellulose) (HPC)) 118 % of control.
`COc1ccc2c3c([nH]c2c1)C(C)N(S(=O)(=O)c1ccccc1)CC3` (centres undefined): the T/C runs as follows: (dose: 12.5 mg/kg/injection, schedule: Q01DX005 (ip), vehicle: Klucel (hydroxypropylcellulose) (HPC)) 98 % of control; under setting [1], 92 % of control; under setting [2], 98 % of control; under setting [3], 98 % of control; (dose: 200.0 mg/kg/injection, schedule: Q01DX005 (ip), vehicle: Klucel (hydroxypropylcellulose) (HPC)) 93 % of control.
In the case of `CCOC(=O)c1[nH]cc(C)c1-c1ccc(OCc2ccccc2)cc1`, the T/C runs as follows: (dose: 100.0 mg/kg/injection, schedule: Q01DX001 (ip), vehicle: saline with Tween-80) 112 % of control; (dose: 200.0 mg/kg/injection, schedule: Q01DX001 (ip), vehicle: saline with Tween-80) 94 % of control; (dose: 400.0 mg/kg/injection, schedule: Q01DX001 (ip), vehicle: saline with Tween-80) 103 % of control.
In the case of `COc1ccccc1N=C1SCC(=O)N1Cc1ccco1`, the T/C by setting is: under setting [11], 95 % of control; under setting [12], 95 % of control; (dose: 200.0 mg/kg/injection, schedule: Q01DX009 (ip), vehicle: saline with Tween-80) 92 % of control.
On to `CCCCCCCCCC[N+](C)(C)CC(O)CO` (centres undefined), for which the T/C is 94 % of control (dose: 12.5 mg/kg/injection, schedule: Q01DX009 (ip), vehicle: saline); 105 % of control (dose: 25.0 mg/kg/injection, schedule: Q01DX009 (ip), vehicle: saline); 111 % of control under setting [9].
On to `Nc1ncc2[nH]c(=O)[nH]c2n1`, for which the T/C was 101 % of control under setting [13], 100 % of control under setting [14] and 99 % of control under setting [15].
Consider `COc1cc2c(-c3c4c5c(cc(OC)c(OC)c5c5cc(OC)c(OC)cc35)CCN4C)c3c4c(cc(OC)c(OC)c4c2cc1OC)CCN3C`, for which the T/C runs as follows: (dose: 100.0 mg/kg/injection, schedule: Q04DX002 (ip), vehicle: saline) 101 % of control; (dose: 200.0 mg/kg/injection, schedule: Q04DX002 (ip), vehicle: saline) 102 % of control; (dose: 400.0 mg/kg/injection, schedule: Q04DX002 (ip), vehicle: saline) 101 % of control.
On to `CCOc1ccc2ccc3ccc(OCC)nc3c2n1`, for which the T/C is, setting by setting: under setting [6], 89 % of control; under setting [7], 98 % of control; under setting [8], 95 % of control.
Regarding `Nc1ncnc2c1ncn2CC(O)CN(CCO)CCO` (centres undefined), the T/C was 97 % of control (dose: 60.0 mg/kg/injection, schedule: Q01DX005 (ip), vehicle: saline); 95 % of control (dose: 120.0 mg/kg/injection, schedule: Q01DX005 (ip), vehicle: saline); 96 % of control (dose: 240.0 mg/kg/injection, schedule: Q01DX005 (ip), vehicle: saline).
With `CCN(CC)c1ccc2c(C)cc(=O)oc2c1`, the T/C reads like this: (dose: 25.0 mg/kg/injection, schedule: Q04DX003 (ip), vehicle: DMSO) 92 % of control; (dose: 50.0 mg/kg/injection, schedule: Q04DX003 (ip), vehicle: DMSO) 88 % of control.
As for `CN(C)C1C[C@@H](O[Si](C)(C)C(C)(C)C)C=C1S(=O)(=O)c1ccccc1` (some centres undefined), the T/C under setting [10] was 87 % of control.
Turning to `CCn1c(=O)c2c(N(CCO)CCO)snc2n(CC)c1=O`, the T/C reads like this: (dose: 100.0 mg/kg/injection, schedule: Q04DX002 (ip), vehicle: suspension in saline) 104 % of control; (dose: 200.0 mg/kg/injection, schedule: Q04DX002 (ip), vehicle: suspension in saline) 101 % of control; (dose: 400.0 mg/kg/injection, schedule: Q04DX002 (ip), vehicle: suspension in saline) 102 % of control.
As to `CC(C)(C)C1CO1` (centres undefined), the T/C was 103 % of control under setting [4]; 108 % of control under setting [5]; 110 % of control (dose: 200.0 mg/kg/injection, schedule: Q01DX005 (ip), vehicle: saline).
For `CCCC1OCC2OC(Nc3ccccc3)C(O)C(O)C2O1` (centres undefined), the T/C reads like this: under setting [13], 103 % of control; under setting [14], 98 % of control; under setting [15], 103 % of control.
For the compound `CC1(C)CC(OP(=[Se])(OC2CC(C)(C)N(O)C(C)(C)C2)OC2CC(C)(C)N(O)C(C)(C)C2)CC(C)(C)N1O`, the T/C was 97 % of control (dose: 12.5 mg/kg/injection, schedule: Q01DX001 (ip), vehicle: Klucel (hydroxypropylcellulose) (HPC)); 102 % of control (dose: 25.0 mg/kg/injection, schedule: Q01DX001 (ip), vehicle: Klucel (hydroxypropylcellulose) (HPC)); 104 % of control (dose: 50.0 mg/kg/injection, schedule: Q01DX001 (ip), vehicle: Klucel (hydroxypropylcellulose) (HPC)).
For the compound `CN(C)C(=O)c1cccc(COc2ccc([N+](=O)[O-])cc2Cl)c1`, the T/C runs as follows: under setting [11], 110 % of control; under setting [12], 110 % of control.

The values above are taken from PubChem BioAssay AID330 (DTP/NCI, 2004).
